{
  "source": "ChEMBL document CHEMBL1158191",
  "about": "“Two new aromatic constitutents from the rootwood of Aeschynomene mimosifolia” (1996)",
  "key": {"KB": {"system": "KB", "test": "Cytotoxicity against human KB cells", "type": "functional"}, "[1]": {"test": "Induction of DNA scission activity in at 25 ug/mL"}, "LNCaP": {"system": "LNCaP", "test": "Cytotoxicity against human LNCAP cells", "type": "functional, cell-based"}, "Lu1": {"system": "Lu1", "test": "Cytotoxicity against human Lu1 cells", "type": "functional, cell-based"}, "U-373MG ATCC": {"system": "U-373MG ATCC", "test": "Cytotoxicity against human U373 cells", "type": "functional, cell-based"}, "ZR-75-1": {"system": "ZR-75-1", "test": "Cytotoxicity against human ZR-75-1 cells", "type": "functional, cell-based"}, "BC1": {"system": "BC1", "test": "Cytotoxicity against human BC1 cells", "type": "functional, cell-based"}},
  "note": "Activity calls are given as the source filed them. No cut-off for these calls is given here.",
  "data": [
    {"smiles": "CO[C@H]1CC(=O)C=CC[C@]1(O)/C=C\\c1ccccc1", "note": "[MIMOSIFOLENONE]", "values": [
      {"measurement": "EC50", "setting": "KB; read-out: ED50 (the source's name)", "result": 3.3, "unit": "µg/mL"},
      {"measurement": "Activity", "setting": "[1]", "result": "inactive"}
    ]},
    {"smiles": "C=C[C@H](c1ccccc1)c1cc(OC)c(O)cc1OC", "values": [
      {"measurement": "Activity", "setting": "KB", "result": "inactive"},
      {"measurement": "Activity", "setting": "LNCaP", "result": "inactive"},
      {"measurement": "Activity", "setting": "Lu1", "result": "inactive"},
      {"measurement": "Activity", "setting": "U-373MG ATCC", "result": "inactive"},
      {"measurement": "Activity", "setting": "ZR-75-1", "result": "inactive"},
      {"measurement": "Activity", "setting": "BC1", "result": "inactive"}
    ]}
  ]
}
